In patent US3980703A, “Extraction of carboxylic acids from dilute aqueous solutions” (The Dow Chemical Company, priority 1975, dated 1976):

Experiments:
Assay type in all cases: physicochemical
[1] = Extraction of acrylic acid with tetra (n-butyl) urea, distribution coefficient by titration (Example 3); settings: 28% extractant in cyclohexane; 1.9% acrylic acid in water; equal volumes
Text: (§1) A 1.9% solution of acrylic acid in water was equilibrated with an equal volume of a 28% solution of tetra-(n-butyl) urea in cyclohexane. […] A similar experiment with 0.2% acetic acid in 18% sodium chloride as the aqueous phase, and 0.5 M tetrabutyl urea in Chevron 25 as the extractant, gave a distribution coefficient of 0.40.

[2] = Extraction of acetic acid with tetra (n-butyl) urea, distribution coefficient (Example 3); settings: 0.5 M extractant in Chevron 25; 0.2% acetic acid in 18% sodium chloride
Text: as §1

[3] = Extraction of acetic acid from 18% aqueous NaCl with polar extractants, distribution coefficient by radiometric counting (Example 1); settings: 1920 ppm acetic acid in 18% aqueous NaCl, equal volumes, 30 min
Text: (§2) A trace quantity of radioactive carbon-14 labeled acetic acid was included. Portions of this solution were shaken for thirty minutes with equal volumes of extractant solutions having the compositions set out in the following table. The phases were allowed to disengage, separated and their relative acetic acid concentrations determined by radiometric counting in a scintillation counter. The distribution coefficient (ratio of acetic acid concentrations in organic and aqueous phase) for each extraction is also given in the table.

[4] = Extraction of acetic acid with TOPO solutions, distribution coefficient (Example 2); settings: about 0.025 molar acid
Text: as §2, with “A solution of 1920 ppm (approximately 0.2 percent) of acetic acid in 18% aqueous NaCl was made up. A” for “A”
(§3) In the manner of Example 1, about 0.025 molar aqueous solutions of acetic, glycolic and lactic acids were extracted with equal volumes of TOPO (trioctyl phosphine oxide) solutions in kerosene or Chevron 3.

[5] = Extraction of glycolic acid with TOPO solutions, distribution coefficient (Example 2); settings: for Distribution Coefficient For: Glycolic: about 0.025 molar acid
Text: as §2, with “A solution of 1920 ppm (approximately 0.2 percent) of acetic acid in 18% aqueous NaCl was made up. A” for “A”
as §3

[6] = Extraction of lactic acid with TOPO solutions, distribution coefficient (Example 2); settings: about 0.025 molar acid
Text: as §2, with “A solution of 1920 ppm (approximately 0.2 percent) of acetic acid in 18% aqueous NaCl was made up. A” for “A”
as §3

[7] = 0.2 M TOPO in kerosene, aqueous phase 1 Molar NaCl
[8] = 0.5 M TOPO in Chevron 3, aqueous phase 1 Molar NaCl
[9] = 0.5 M TOPO in Chevron 3, aqueous phase water

**Q.** What does the source list for `CCCCN(CCCC)C(=O)N(CCCC)CCCC` [tetra-(n-butyl) urea]?
**A.** distribution coefficient for the acrylic acid (organic/aqueous) [1]: 1.05; distribution coefficient (acetic acid) [2]: 0.40

**Q.** What does the source list for `CCCCCCCCP(=O)(CCCCCCCC)CCCCCCCC` [Trioctyl phosphine oxide, trioctyl phosphine oxide]?
**A.** Distribution coefficient (ratio of acetic acid concentrations in organic and aqueous phase) ([3]; 0.5 M extractant in Chevron 25): 6.1; Distribution Coefficient For: Acetic [4, 7]: 1.46; Distribution Coefficient For: Acetic [4, 8]: 3.2; Distribution Coefficient For: Acetic [4, 9]: 2.8; Distribution Coefficient For: Glycolic [5, 7]: 0.13; Distribution Coefficient For: Glycolic [5, 8]: 0.39; Distribution Coefficient For: Glycolic [5, 9]: 0.35; Distribution Coefficient For: Lactic [6, 7]: 0.40; Distribution Coefficient For: Lactic [6, 8]: 1.4; Distribution Coefficient For: Lactic [6, 9]: 1.02

**Q.** With `O=C(O)CO` [glycolic acid] as the compound, how does the “extraction effectiveness of glycolic acid relative to acetic and lactic acids” value ([5]; TOPO solutions in kerosene or Chevron 3) read?
**A.** The value was “much less effectively extracted than acetic and lactic acids”.

**Q.** With `CCCC[S+]([O-])CCCC` [Di(n-butyl) sulfoxide] as the compound, how does the “Distribution coefficient (ratio of acetic acid concentrations in organic and aqueous phase)” value ([3]; 0.1 M extractant in Chevron 25) read?
**A.** The value was 0.18.

**Q.** And the “Distribution coefficient (ratio of acetic acid concentrations in organic and aqueous phase)” value ([3]; 0.5 M extractant in Chevron 25)?
**A.** Its value is 1.00.
